# Measured values reported in ChEMBL document CHEMBL1129258, “Synthesis and structure-activity relationships of 2-pyridones: a novel series of potent DNA gyrase inhibitors as antibacterial agents” (J Med Chem, 1996).
# Experiments:
# [1] = target: T1, DNA gyrase (Escherichia coli) (UniProt P0AES6+P0AES4); assay: In vitro antibacterial activity against gram-negative organism […] ATCC 13048; assay type: functional; details: Enterobacter aerogenes
# [2] = target: T1, DNA gyrase (Escherichia coli); assay: In vitro antibacterial against gram-negative organism Escherichia coli JUHL; assay type: functional; details: Escherichia coli K-12
# [3] = target: T1, DNA gyrase (Escherichia coli); assay: In vitro antibacterial activity against gram-negative organism Klebsiella pneumoniae ATCC 8045; assay type: functional
# [4] = target: T1, DNA gyrase (Escherichia coli); assay: In vitro antibacterial activity against gram-negative organism Prov. stuartii CMX-640; assay type: functional; details: Providencia stuartii
# [5] = In vitro antibacterial activity against gram-negative organism Pseudomonas aeruginosa 5007; assay type: functional
# [6] = In vitro antibacterial activity against gram-negative organism Pseudomonas aeruginosa DPHD-2862; assay type: functional; details: Pseudomonas aeruginosa; read-out: MIC
# [7] = target: T2, DNA gyrase (Staphylococcus aureus) (UniProt P0A0K8+P20831); assay: In vitro antibacterial activity against gram-positive organism Staphylococcus aureus 1775; assay type: functional
# [8] = target: T2, DNA gyrase (Staphylococcus aureus); assay: In vitro antibacterial activity against gram-positive organism Staphylococcus aureus ATCC 6538p; assay type: functional
# [9] = target: T2, DNA gyrase (Staphylococcus aureus); assay: In vitro antibacterial activity against gram-positive organism Staphylococcus aureus NCTC-10649M; assay type: functional
# [10] = target: T1, DNA gyrase (Escherichia coli); assay: In vitro antibacterial activity against gram-positive organism Streptococcus bovis A-5169; assay type: functional; details: Streptococcus equinus
# [11] = system: Streptococcus pyogenes; assay: In vitro antibacterial activity against gram-positive organism Streptococcus pyogenes EES61; assay type: functional; details: Streptococcus pyogenes; read-out: MIC
# [12] = target: T1, DNA gyrase (Escherichia coli); assay: In vitro antibacterial activity against gram-positive organism Enterococcus faecium ATCC 8043; assay type: functional
# [13] = target: T1, DNA gyrase (Escherichia coli); details: Escherichia coli K-12
# Description: Concentration which causes 50% of the gyrase (Escherichia coli H560)-mediated maximal DNA cleavage.
# [14] = Pseudomonas aeruginosa, read-out: MIC
MIC [1],MIC [2],MIC [3],MIC [4],"MIC [5, 14]",MIC [6],MIC [7],MIC [8],MIC [9],MIC [10],MIC [11],MIC [12],MIC [5],Structure (SMILES),CC50 [13]
0.05 µg/mL,0.02 µg/mL,0.01 µg/mL,1.56 µg/mL,0.39 µg/mL,3.1 µg/mL,3.1 µg/mL,0.05 µg/mL,0.05 µg/mL,0.39 µg/mL,0.2 µg/mL,0.2 µg/mL,,COc1c(N2CCC(N)C2)c(F)cn2c(=O)c(C(=O)O)cc(C3CC3)c12 (stereo not drawn),0.3 µg/mL
6.2 µg/mL,6.2 µg/mL,3.1 µg/mL,> 100 pug ml-1,50 µg/mL,> 100 µg/mL,> 100 µg/mL,50 µg/mL,50 µg/mL,> 100 µg/mL,> 100 µg/mL,> 100 µg/mL,,NC1CCN(c2nc3c(-c4c(F)c(F)c(F)c(F)c4F)cc(C(=O)O)c(=O)n3cc2F)C1 (stereo not drawn),12.5 µg/mL
3.1 µg/mL,0.78 µg/mL,0.39 µg/mL,25 µg/mL,3.1 µg/mL,> 100 µg/mL,25 µg/mL,0.1 µg/mL,0.2 µg/mL,3.1 µg/mL,0.78 µg/mL,1.56 µg/mL,,CC(=O)N[C@H]1C[C@H](C)N(c2nc3c(-c4ccc(F)cc4F)cc(C(=O)O)c(=O)n3cc2F)C1,1.3 µg/mL
0.39 µg/mL,0.2 µg/mL,0.1 µg/mL,50 µg/mL,3.1 µg/mL,> 100 µg/mL,100 µg/mL,1.56 µg/mL,0.78 µg/mL,50 µg/mL,12.5 µg/mL,12.5 µg/mL,,CN1CCN(c2nc3c(C4CC4)cc(C(=O)O)c(=O)n3cc2F)CC1,1 µg/mL
0.39 µg/mL,0.2 µg/mL,0.2 µg/mL,6.2 µg/mL,0.78 µg/mL,50 µg/mL,> 100 µg/mL,0.78 µg/mL,1.56 µg/mL,12.5 µg/mL,6.2 µg/mL,3.1 µg/mL,,Cc1c(NCCN)c(F)cn2c(=O)c(C(=O)O)cc(C3CC3)c12,0.8 µg/mL
0.78 µg/mL,0.39 µg/mL,0.2 µg/mL,25 µg/mL,6.2 µg/mL,> 100 µg/mL,> 100 µg/mL,0.2 µg/mL,0.2 µg/mL,12.5 µg/mL,3.1 µg/mL,6.2 µg/mL,,CN1CCN(c2nc3c(-c4ccc(F)cc4F)cc(C(=O)O)c(=O)n3cc2F)CC1,
3.1 µg/mL,3.1 µg/mL,0.39 µg/mL,> 100 µg/mL,25 µg/mL,,> 100 µg/mL,6.2 µg/mL,6.2 µg/mL,> 100 µg/mL,> 100 µg/mL,> 100 µg/mL,,O=C(O)c1cc(C2CC2)c2nc(N3CCOCC3)c(F)cn2c1=O,1.5 µg/mL

# The remaining lines, values behind:
Structure (SMILES),MIC [1],MIC [2],MIC [3],MIC [4],"MIC [5, 14]",MIC [6],MIC [7],MIC [8],MIC [9],MIC [10],MIC [11],MIC [12],MIC [5],CC50 [13]
CCc1cc(C(=O)O)c(=O)n2cc(F)c(N3CCC(N)C3)c(C)c12 (stereo not drawn),0.05 µg/mL,0.01 µg/mL,0.02 µg/mL,0.78 µg/mL,0.2 µg/mL,12.5 µg/mL,12.5 µg/mL,0.1 µg/mL,0.1 µg/mL,0.78 µg/mL,0.39 µg/mL,0.2 µg/mL,,3.2 µg/mL
Cc1c(N2CC(N)C2)c(F)cn2c(=O)c(C(=O)O)cc(C3CC3)c12,0.05 µg/mL,0.01 µg/mL,0.01 µg/mL,1.56 µg/mL,,12.5 µg/mL,6.2 µg/mL,0.1 µg/mL,0.05 µg/mL,0.78 µg/mL,0.39 µg/mL,0.2 µg/mL,0.2 pug ml-1,1.5 µg/mL
O=C(O)c1cc(C2CC2)c2nc(N3CCNCC3)c(F)cn2c1=O,0.05 µg/mL,0.05 µg/mL,0.05 µg/mL,12.5 µg/mL,0.39 µg/mL,100 µg/mL,50 µg/mL,0.78 µg/mL,1.56 µg/mL,12.5 µg/mL,12.5 µg/mL,12.5 µg/mL,,2 µg/mL
CO[C@@H]1CN(c2c(F)cn3c(=O)c(C(=O)O)cc(C4CC4)c3c2C)C[C@H]1N,0.2 µg/mL,0.05 µg/mL,0.05 µg/mL,3.1 µg/mL,1.56 µg/mL,25 µg/mL,3.1 µg/mL,0.05 µg/mL,0.05 µg/mL,0.39 µg/mL,0.39 µg/mL,0.39 µg/mL,,
C[C@H]1C[C@H](N)CN1c1nc2c(-c3ccc(F)cc3F)cc(C(=O)O)c(=O)n2cc1F,0.1 µg/mL,0.02 µg/mL,0.01 µg/mL,6.2 µg/mL,0.39 µg/mL,50 µg/mL,50 µg/mL,0.1 µg/mL,0.1 µg/mL,1.56 µg/mL,0.78 µg/mL,0.78 µg/mL,,0.5 µg/mL
